One data set relates to HBV. In words: anti HBV activity, HepG2.117 inducibly HBV producing cell line (Tet-off), intracellular HBV DNA by realtime PCR. The class given is cell-based. Conditions: Hepatitis B virus, 72 h, HepG2.117 cells, 3 days of treatment.
Data set [1] can be described thus: Cytotoxicity, HepG2 cells, Resazurin assay. It counts as cell-based. Conditions: human. In general terms: Alamar Blue is a resazurin reagent that responds to reducing activity.

SMILES strings stand for the structures.

The term EC50 denotes the concentration that produces a half-maximal response. The low end stands for a more potent agent, the high end for a less potent agent. A word on the CC50: it is the concentration at which the toxic effect on the cells reaches its halfway point. For `Cn1cc(S(=O)(=O)NC2(C(F)(F)F)CCC2)c(F)c1C(=O)Nc1ccnc(C#N)c1F` [Compound 167, N-(2-cyano-3-fluoro-4-pyridyl)-3-fluoro-1-methyl-4-[[1-(trifluoromethyl)cyclobutyl]sulfamoyl]pyrrole-2-carboxamide], the EC50 in the data set on HBV amounted to 5 nM. Also, the CC50 at 4 days in data set [1] is greater than 25000 nM.

`C[C@@H](NS(=O)(=O)c1cn(C)c(C(=O)Nc2ccnc(C(F)F)c2F)c1Cl)C(F)(F)F` [Compound 142, 3-chloro-N-[2-(difluoromethyl)-3-fluoro-4-pyridyl]-1-methyl-4-[[(1R)-2,2,2-trifluoro-1-methyl-ethyl]sulfamoyl]pyrrole-2-carboxamide] registered a concentration for a half-maximal effect (EC50) in the data set with HBV of 20 nM. Further, the CC50 at 4 days in data set [1] is greater than 25000 nM.

As to `Cn1cc(S(=O)(=O)NC2(C(F)(F)F)CCC2)c(F)c1C(=O)Nc1ccnc(Cl)c1` [Compound 122, N-(2-chloro-4-pyridyl)-3-fluoro-1-methyl-4-[[1-(trifluoromethyl)cyclobutyl]sulfamoyl]pyrrole-2-carboxamide], the EC50 in the data set on HBV turned out to be 10 nM. In data set [1], this molecule gave a CC50 at 4 days greater than 25000 nM.

Take `C[C@@H](NS(=O)(=O)c1cn(C)c(C(=O)Nc2ccnc(Br)c2F)c1Cl)C(C)(F)F` [Compound 148, N-(2-bromo-3-fluoro-4-pyridyl)-3-chloro-4-[[(1R)-2,2-difluoro-1-methyl-propyl]sulfamoyl]-1-methyl-pyrrole-2-carboxamide]: the EC50 in the data set on HBV came out at 20 nM. In data set [1], the CC50 at 4 days is greater than 25000 nM.

As to `C[C@H](NS(=O)(=O)c1cn(C)c(C(=O)Nc2ccnc(C(F)(F)F)c2)c1F)C(C)(F)F` [Compound 62, 4-[[(1S)-2,2-difluoro-1-methyl-propyl]sulfamoyl]-3-fluoro-1-methyl-N-[2-(trifluoromethyl)-4-pyridyl]pyrrole-2-carboxamide], a half-maximal effect in the data set on HBV (EC50) was put at 190 nM. In addition, in data set [1], the cytotoxic concentration (CC50) at 4 days is greater than 25000 nM.

Take `Cn1cc(S(=O)(=O)N[C@H]2CCOC2)c(Cl)c1C(=O)Nc1ccnc(Cl)c1` [Compound 91, 3-chloro-N-(2-chloro-4-pyridyl)-1-methyl-4-[[(3S)-tetrahydrofuran-3-yl]sulfamoyl]pyrrole-2-carboxamide]: a half-maximal effect with HBV (EC50) was put at 200 nM. Also, the CC50 at 4 days in data set [1] is greater than 25000 nM.

With `Cc1cc(NC(=O)c2c(Cl)c(S(=O)(=O)N[C@H](C)C(F)(F)F)cn2C)cc(C#N)n1` [Compound 36, 3-chloro-N-(2-cyano-6-methyl-4-pyridyl)-1-methyl-4-[[(1R)-2,2,2-trifluoro-1-methyl-ethyl]sulfamoyl]pyrrole-2-carboxamide], in the data set on HBV, the concentration for a half-maximal effect (EC50) is 150 nM. The CC50 at 4 days in data set [1] is greater than 25000 nM.

On to `C[C@@H](NS(=O)(=O)c1cn(C)c(C(=O)Nc2ccc(F)c(C#N)n2)c1C#N)C(F)(F)F` [Compound 181, 3-cyano-N-(6-cyano-5-fluoro-2-pyridyl)-1-methyl-4-[[(1R)-2,2,2-trifluoro-1-methyl-ethyl]sulfamoyl]pyrrole-2-carboxamide], for which, in the data set on HBV, the EC50 stood at 1000 nM. This molecule had a CC50 at 4 days in data set [1] greater than 25000 nM.

On to `Cn1cc(S(=O)(=O)NC2(C(F)(F)F)CCC2)c(F)c1C(=O)Nc1cc(F)nc(F)c1` [Compound 168, N-(2,6-difluoro-4-pyridyl)-3-fluoro-1-methyl-4-[[1-(trifluoromethyl)cyclobutyl]sulfamoyl]pyrrole-2-carboxamide], for which, in the data set on HBV, the EC50 worked out at 6 nM. Further, the CC50 at 4 days in data set [1] is greater than 25000 nM.

For `C[C@@H](NS(=O)(=O)c1cn(C)c(C(=O)Nc2ccnc(Cl)c2)c1Cl)C(C)(F)F` [Compound 94, 3-chloro-N-(2-chloro-4-pyridyl)-4-[[(1R)-2,2-difluoro-1-methyl-propyl]sulfamoyl]-1-methyl-pyrrole-2-carboxamide], it took 30 nM to reach a half-maximal effect in the data set with HBV (EC50). Further, the CC50 at 4 days in data set [1] is greater than 25000 nM.

For `C[C@@H](NS(=O)(=O)c1cn(C)c(C(=O)Nc2ccnc(F)c2F)c1Cl)C(F)(F)F` [Compound 138, 3-chloro-N-(2,3-difluoro-4-pyridyl)-1-methyl-4-[[(1R)-2,2,2-trifluoro-1-methyl-ethyl]sulfamoyl]pyrrole-2-carboxamide], the EC50 with HBV was found to be 90 nM. This molecule came in with a half-maximal cytotoxic concentration (CC50) at 4 days in data set [1] greater than 25000 nM.

`C[C@H](NS(=O)(=O)c1cn(C)c(C(=O)Nc2ccnc(Cl)c2)c1F)C(C)(F)F` [Compound 59, N-(2-chloro-4-pyridyl)-4-[[(1S)-2,2-difluoro-1-methyl-propyl]sulfamoyl]-3-fluoro-1-methyl-pyrrole-2-carboxamide] returned an EC50 in the data set on HBV of 70 nM. Besides, the CC50 at 4 days in data set [1] was greater than 25000 nM.

With `Cn1cc(S(=O)(=O)NC2(C(F)(F)F)CCC2)c(Cl)c1C(=O)Nc1cc(F)nc(F)c1` [Compound 109, 3-chloro-N-(2,6-difluoro-4-pyridyl)-1-methyl-4-[[1-(trifluoromethyl)cyclobutyl]sulfamoyl]pyrrole-2-carboxamide], it took 10 nM to reach a half-maximal effect in the data set on HBV (EC50). In data set [1], this molecule showed a CC50 at 4 days greater than 25000 nM.

Molecule `Cc1cc(NC(=O)c2c(Cl)c(S(=O)(=O)N[C@H](C)C(F)(F)F)cn2C)cc(Cl)n1` [Compound 141, 3-chloro-N-(2-chloro-6-methyl-4-pyridyl)-1-methyl-4-[[(1R)-2,2,2-trifluoro-1-methyl-ethyl]sulfamoyl]pyrrole-2-carboxamide] showed an EC50 in the data set on HBV of 40 nM. Moreover, the half-maximal cytotoxic concentration (CC50) at 4 days in data set [1] is greater than 25000 nM.

For `C[C@@H](NS(=O)(=O)c1cn(C)c(C(=O)Nc2ccnc(C#N)c2F)c1F)C(F)(F)F` [Compound 155, N-(2-cyano-3-fluoro-4-pyridyl)-3-fluoro-1-methyl-4-[[(1R)-2,2,2-trifluoro-1-methyl-ethyl]sulfamoyl]pyrrole-2-carboxamide], in the data set on HBV, the EC50 is 20 nM. Moreover, the half-maximal cytotoxic concentration (CC50) at 4 days in data set [1] is greater than 25000 nM.

With `Cn1cc(S(=O)(=O)NC2(C)CC(F)(F)C2)c(Cl)c1C(=O)Nc1ccnc(Cl)c1F` [Compound 114, 3-chloro-N-(2-chloro-3-fluoro-4-pyridyl)-4-[(3,3-difluoro-1-methyl-cyclobutyl)sulfamoyl]-1-methyl-pyrrole-2-carboxamide], in the data set with HBV, the EC50 came to 10 nM. The CC50 at 4 days in data set [1] is greater than 25000 nM.

In the data set with HBV, `Cc1cc(NC(=O)c2c(F)c(S(=O)(=O)NC3(C(F)(F)F)CCC3)cn2C)cc(C#N)n1` [Compound 171, N-(2-cyano-6-methyl-4-pyridyl)-3-fluoro-1-methyl-4-[[1-(trifluoromethyl)cyclobutyl]sulfamoyl]pyrrole-2-carboxamide] returned an EC50 of 100 nM. The molecule also returned a CC50 at 4 days in data set [1] greater than 25000 nM.

Consider `Cn1cc(S(=O)(=O)NC2(C)CC(F)(F)C2)c(F)c1C(=O)Nc1ccnc(Br)c1` [Compound 117, N-(2-bromo-4-pyridyl)-4-[(3,3-difluoro-1-methyl-cyclobutyl)sulfamoyl]-3-fluoro-1-methyl-pyrrole-2-carboxamide], for which the EC50 with HBV turned out to be 10 nM. The CC50 at 4 days in data set [1] was greater than 25000 nM.

Consider `C[C@@H](NS(=O)(=O)c1cn(C)c(C(=O)Nc2ccc(F)nc2)c1Cl)C(F)(F)F` [Compound 50, 3-chloro-N-(6-fluoro-3-pyridyl)-1-methyl-4-[[(1R)-2,2,2-trifluoro-1-methyl-ethyl]sulfamoyl]pyrrole-2-carboxamide], for which, in the data set with HBV, the EC50 turned out to be 200 nM. Further, the 50% cytotoxic concentration (CC50) at 4 days in data set [1] was greater than 25000 nM.

Regarding `C[C@@H](NS(=O)(=O)c1cn(C)c(C(=O)Nc2ccc(F)c(Br)n2)c1Cl)C(F)(F)F` [Compound 76, N-(6-bromo-5-fluoro-2-pyridyl)-3-chloro-1-methyl-4-[[(1R)-2,2,2-trifluoro-1-methyl-ethyl]sulfamoyl]pyrrole-2-carboxamide], the EC50 in the data set with HBV was 50 nM. This molecule returned a CC50 at 4 days in data set [1] greater than 25000 nM.

In the data set with HBV, `Cn1cc(S(=O)(=O)NC2(C(F)(F)F)CCC2)c(F)c1C(=O)Nc1ccnc(F)c1F` [Compound 170, N-(2,3-difluoro-4-pyridyl)-3-fluoro-1-methyl-4-[[1-(trifluoromethyl)cyclobutyl]sulfamoyl]pyrrole-2-carboxamide] yielded an EC50 of 40 nM. The molecule also came in with a cytotoxic concentration (CC50) at 4 days in data set [1] greater than 25000 nM.

With `C[C@@H](NS(=O)(=O)c1cn(C)c(C(=O)Nc2ccc(F)c(C#N)n2)c1Cl)C(F)(F)F` [Compound 156, 3-chloro-N-(6-cyano-5-fluoro-2-pyridyl)-1-methyl-4-[[(1R)-2,2,2-trifluoro-1-methyl-ethyl]sulfamoyl]pyrrole-2-carboxamide], the EC50 in the data set on HBV was found to be 140 nM. The CC50 at 4 days in data set [1] is greater than 25000 nM.

The molecule `Cn1cc(S(=O)(=O)NC2(C(F)(F)F)CCC2)c(F)c1C(=O)Nc1ccnc(Br)c1F` [Compound 166, N-(2-bromo-3-fluoro-4-pyridyl)-3-fluoro-1-methyl-4-[[1-(trifluoromethyl)cyclobutyl]sulfamoyl]pyrrole-2-carboxamide] had an EC50 in the data set on HBV of 3 nM. Further, the 50% cytotoxic concentration (CC50) at 4 days in data set [1] is greater than 25000 nM.

Turning to `C[C@@H](NS(=O)(=O)c1cn(C)c(C(=O)Nc2ccnc(C(F)(F)F)c2)c1Cl)C(C)(F)F` [Compound 150, 3-chloro-4-[[(1R)-2,2-difluoro-1-methyl-propyl]sulfamoyl]-1-methyl-N-[2-(trifluoromethyl)-4-pyridyl]pyrrole-2-carboxamide], the EC50 in the data set with HBV worked out at 90 nM. The molecule further displayed a CC50 at 4 days in data set [1] greater than 25000 nM.

`C[C@@H](NS(=O)(=O)c1cn(C)c(C(=O)Nc2ccnc(C(F)F)c2F)c1Cl)C(C)(F)F` [Compound 147, 3-chloro-N-[2-(difluoromethyl)-3-fluoro-4-pyridyl]-4-[[(1R)-2,2-difluoro-1-methyl-propyl]sulfamoyl]-1-methyl-pyrrole-2-carboxamide] yielded an EC50 with HBV of 20 nM. The same molecule returned a CC50 at 4 days in data set [1] greater than 25000 nM.

`Cc1cc(NC(=O)c2c(F)c(S(=O)(=O)N[C@H](C)C(C)(F)F)cn2C)cc(Br)n1` [Compound 157, N-(2-bromo-6-methyl-4-pyridyl)-4-[[(1R)-2,2-difluoro-1-methyl-propyl]sulfamoyl]-3-fluoro-1-methyl-pyrrole-2-carboxamide]: the EC50 in the data set on HBV is 90 nM. For the same molecule, the half-maximal cytotoxic concentration (CC50) at 4 days in data set [1] was greater than 25000 nM.

The molecule `C[C@H](NS(=O)(=O)c1cn(C)c(C(=O)Nc2ccnc(C#N)c2)c1F)C(C)(F)F` [Compound 58, N-(2-cyano-4-pyridyl)-4-[[(1S)-2,2-difluoro-1-methyl-propyl]sulfamoyl]-3-fluoro-1-methyl-pyrrole-2-carboxamide] had an EC50 in the data set with HBV of 140 nM. In data set [1], this molecule displayed a CC50 at 4 days greater than 25000 nM.
